Assay results as given in publication PMC6556873, “Rapid Covalent-Probe Discovery by Electrophile-Fragment Screening” (Journal of the American Chemical Society, 2019).
Like-named read-outs stand apart in the source and are kept apart here.

Assays:
in vitro [1] = test: in vitro; parameters: species or system HB2, HEK293; conditions: human, ccd841 cells
in vitro [2] = test: in vitro; parameters: species or system CCD841, HEK293; conditions: human, hb2 cells, read-out: HB-2 Cells Viability (%)
OTUB2 (OTUB2A) = target: T1, OTUB2 (OTUB2A) (Homo sapiens, UniProt Q96DC9); parameters: Intact protein LC/MS covalent labelling, fragments in pools of five, 200 uM each, 4 °C; conditions: 24 h, 4 °C, pool of five; 200 µM; covalent
T1 construct: full length residues 1-234, E. coli BL21(DE3)-R3, His tag removed by TEV, construct 27312 Da
T1 sequence (Q96DC9 1-234): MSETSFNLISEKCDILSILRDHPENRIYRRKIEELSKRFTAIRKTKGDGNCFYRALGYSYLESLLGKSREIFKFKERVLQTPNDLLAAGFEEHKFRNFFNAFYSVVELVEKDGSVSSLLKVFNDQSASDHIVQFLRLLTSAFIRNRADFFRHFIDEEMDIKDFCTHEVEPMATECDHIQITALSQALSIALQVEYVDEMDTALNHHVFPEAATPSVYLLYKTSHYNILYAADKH

BSA = target: T2, BSA (Bos taurus, UniProt P02769); parameters: Intact protein LC/MS covalent labelling, fragments in pools of five, 200 uM each, 4 °C; conditions: 24 h, 4 °C, pool of five; 200 µM; covalent
T2 construct: gene ALB
T2 sequence (P02769 whole entry, the tested form may be a part): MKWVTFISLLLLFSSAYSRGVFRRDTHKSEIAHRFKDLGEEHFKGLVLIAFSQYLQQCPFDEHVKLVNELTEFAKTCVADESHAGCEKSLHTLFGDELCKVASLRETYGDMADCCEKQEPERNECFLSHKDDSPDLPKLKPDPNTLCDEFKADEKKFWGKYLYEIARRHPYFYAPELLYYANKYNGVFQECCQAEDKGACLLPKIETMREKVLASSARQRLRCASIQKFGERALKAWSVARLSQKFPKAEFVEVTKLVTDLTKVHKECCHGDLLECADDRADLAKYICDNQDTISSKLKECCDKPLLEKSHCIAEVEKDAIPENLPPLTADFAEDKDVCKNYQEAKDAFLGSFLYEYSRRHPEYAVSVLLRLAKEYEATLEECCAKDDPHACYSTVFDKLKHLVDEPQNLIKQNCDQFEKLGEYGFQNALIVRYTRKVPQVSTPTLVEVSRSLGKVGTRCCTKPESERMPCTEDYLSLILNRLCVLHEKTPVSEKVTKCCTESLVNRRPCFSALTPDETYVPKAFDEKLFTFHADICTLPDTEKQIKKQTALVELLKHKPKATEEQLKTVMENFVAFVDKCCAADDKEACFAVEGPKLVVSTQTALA

PCAF = target: T3, PCAF (Homo sapiens, UniProt Q92831); parameters: Intact protein LC/MS covalent labelling, fragments in pools of five, 200 uM each, 4 °C; conditions: 24 h, 4 °C, pool of five; 200 µM; covalent
T3 construct: gene KAT2B
T3 sequence (Q92831 whole entry, the tested form may be a part): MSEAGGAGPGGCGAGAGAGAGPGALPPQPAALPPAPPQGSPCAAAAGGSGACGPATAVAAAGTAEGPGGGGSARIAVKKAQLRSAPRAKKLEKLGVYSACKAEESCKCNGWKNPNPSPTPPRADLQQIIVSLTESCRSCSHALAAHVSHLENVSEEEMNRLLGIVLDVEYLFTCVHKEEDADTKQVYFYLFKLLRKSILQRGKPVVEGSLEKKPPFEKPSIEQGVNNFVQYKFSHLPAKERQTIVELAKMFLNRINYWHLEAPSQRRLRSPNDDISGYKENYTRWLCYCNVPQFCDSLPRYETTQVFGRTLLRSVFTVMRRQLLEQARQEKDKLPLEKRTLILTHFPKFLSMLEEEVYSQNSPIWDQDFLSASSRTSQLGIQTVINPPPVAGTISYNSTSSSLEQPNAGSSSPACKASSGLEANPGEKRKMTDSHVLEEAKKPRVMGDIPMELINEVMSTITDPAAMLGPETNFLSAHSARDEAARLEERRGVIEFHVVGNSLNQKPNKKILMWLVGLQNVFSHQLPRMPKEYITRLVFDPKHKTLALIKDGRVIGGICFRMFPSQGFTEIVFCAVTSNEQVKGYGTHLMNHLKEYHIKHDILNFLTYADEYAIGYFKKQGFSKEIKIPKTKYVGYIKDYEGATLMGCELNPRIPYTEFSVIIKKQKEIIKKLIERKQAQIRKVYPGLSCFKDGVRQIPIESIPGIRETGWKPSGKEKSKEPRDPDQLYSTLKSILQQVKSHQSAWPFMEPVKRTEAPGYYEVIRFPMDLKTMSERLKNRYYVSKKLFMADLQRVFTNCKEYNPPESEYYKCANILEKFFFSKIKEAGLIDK

NUDT7 = target: T4, NUDT7 (Homo sapiens, UniProt P0C024); parameters: Intact protein LC/MS covalent labelling, fragments in pools of five, 200 uM each, 4 °C; conditions: 24 h, 4 °C, pool of five; 200 µM; covalent
T4 construct: residues 14-235, E. coli, pNIC28-Bsa4, N-terminal His6 tag removed by TEV, construct 26672 Da
T4 sequence (P0C024 14-235): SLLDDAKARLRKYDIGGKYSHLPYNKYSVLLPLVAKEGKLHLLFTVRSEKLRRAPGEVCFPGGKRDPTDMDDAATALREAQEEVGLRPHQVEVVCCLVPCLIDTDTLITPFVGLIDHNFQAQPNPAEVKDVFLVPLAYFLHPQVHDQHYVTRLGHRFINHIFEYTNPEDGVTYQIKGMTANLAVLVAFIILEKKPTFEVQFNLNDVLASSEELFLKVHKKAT

in vitro [3] = test: in vitro; parameters: species or system HB2, CCD841; conditions: human, hek293 cells

CC1CCc2ccccc2N1C(=O)CCl (stereo not drawn) [PCM-0102822]
viability at 48 h, 10 µM (in vitro [1]): 39.6%
viability at 48 h, 10 µM (in vitro [2]): 92.2%
OTUB2 (OTUB2 (OTUB2A)): 0
BSA (BSA): 0
PCAF (PCAF): 0
NUDT7 (NUDT7): 0
viability at 48 h, 10 µM (in vitro [3]): 54.7%

CC12CCC(CC1=NNC(=O)CCl)C2(C)C (stereo not drawn) [PCM-0102498]
viability at 48 h, 10 µM (in vitro [1]): 14.6%
viability at 48 h, 10 µM (in vitro [2]): 25.9%
OTUB2 (OTUB2 (OTUB2A)): 0
BSA (BSA): 0
PCAF (PCAF): 0
NUDT7 (NUDT7): 0
viability at 48 h, 10 µM (in vitro [3]): 2.2%

CC(NC(=O)CCl)C12CC3CC(CC(C3)C1)C2 (stereo not drawn) [PCM-0102402]
viability at 48 h, 10 µM (in vitro [1]): 73.3%
viability at 48 h, 10 µM (in vitro [2]): 67.3%
OTUB2 (OTUB2 (OTUB2A)): 0.24
BSA (BSA): 0
PCAF (PCAF): 0
NUDT7 (NUDT7): 0.07
viability at 48 h, 10 µM (in vitro [3]): 55.2%

C=CC(=O)NCc1ccc(F)cc1 [PCM-0102839]
viability at 48 h, 10 µM (in vitro [1]): 111%
viability at 48 h, 10 µM (in vitro [2]): 105%
OTUB2 (OTUB2 (OTUB2A)): 0
BSA (BSA): 0
PCAF (PCAF): 0
NUDT7 (NUDT7): 0
viability at 48 h, 10 µM (in vitro [3]): 87.3%

O=C(CCl)N=c1sccn1Cc1ccccc1Cl [PCM-0102550]
viability at 48 h, 10 µM (in vitro [1]): 3.8%
viability at 48 h, 10 µM (in vitro [2]): 27.2%
OTUB2 (OTUB2 (OTUB2A)): 0
BSA (BSA): 0
PCAF (PCAF): 0
NUDT7 (NUDT7): 0.11
viability at 48 h, 10 µM (in vitro [3]): 6%

Cc1ccc2nc(NC(=O)CCl)sc2c1 [PCM-0103031]
viability at 48 h, 10 µM (in vitro [1]): 74.9%
viability at 48 h, 10 µM (in vitro [2]): 70.6%
OTUB2 (OTUB2 (OTUB2A)): 0.18
BSA (BSA): 0
PCAF (PCAF): 0
NUDT7 (NUDT7): 0.88
viability at 48 h, 10 µM (in vitro [3]): 79.2%

O=C(CCl)NNC(=O)c1ccccc1Cl [PCM-0102954]
viability at 48 h, 10 µM (in vitro [1]): 72.3%
viability at 48 h, 10 µM (in vitro [2]): 91.9%
OTUB2 (OTUB2 (OTUB2A)): 0.8
BSA (BSA): 0
PCAF (PCAF): 0
NUDT7 (NUDT7): 0
viability at 48 h, 10 µM (in vitro [3]): 91.3%

COC(=O)c1c(NC(=O)CCl)sc2c1CCCC2 [PCM-0102143]
viability at 48 h, 10 µM (in vitro [1]): 68.1%
viability at 48 h, 10 µM (in vitro [2]): 31.6%
OTUB2 (OTUB2 (OTUB2A)): 0.05
BSA (BSA): 0
PCAF (PCAF): 0
NUDT7 (NUDT7): 0.39
viability at 48 h, 10 µM (in vitro [3]): 8.6%

O=C(CCl)N1CCCc2cc(S(=O)(=O)N3CCCC3)ccc21 [PCM-0102625]
viability at 48 h, 10 µM (in vitro [1]): 12.2%
viability at 48 h, 10 µM (in vitro [2]): 5.4%
OTUB2 (OTUB2 (OTUB2A)): 0
BSA (BSA): 0
PCAF (PCAF): 0
NUDT7 (NUDT7): 0
viability at 48 h, 10 µM (in vitro [3]): 2.5%

CN(C(=O)CCl)c1ccc([N+](=O)[O-])cc1 [PCM-0102669]
viability at 48 h, 10 µM (in vitro [1]): 17.3%
viability at 48 h, 10 µM (in vitro [2]): 12.9%
OTUB2 (OTUB2 (OTUB2A)): 0
BSA (BSA): 0
PCAF (PCAF): 0
NUDT7 (NUDT7): 0.14
viability at 48 h, 10 µM (in vitro [3]): 10.5%

COC(=O)c1ccc(Cl)c(NC(=O)CCl)c1 [PCM-0102764]
viability at 48 h, 10 µM (in vitro [1]): 39.9%
viability at 48 h, 10 µM (in vitro [2]): 16.7%
OTUB2 (OTUB2 (OTUB2A)): 0.29
BSA (BSA): 0
PCAF (PCAF): 0
NUDT7 (NUDT7): 0.07
viability at 48 h, 10 µM (in vitro [3]): 5.7%

C=CC(=O)N1CCN(C(=O)C23CC4CC(CC(C4)C2)C3)CC1 [PCM-0102682]
viability at 48 h, 10 µM (in vitro [1]): 103%
viability at 48 h, 10 µM (in vitro [2]): 102%
OTUB2 (OTUB2 (OTUB2A)): 0
BSA (BSA): 0
PCAF (PCAF): 0
NUDT7 (NUDT7): 0
viability at 48 h, 10 µM (in vitro [3]): 72.7%

C=CC(=O)N1CCN(c2nccc3sccc23)CC1 [PCM-0102715]
viability at 48 h, 10 µM (in vitro [1]): 92.1%
viability at 48 h, 10 µM (in vitro [2]): 97.2%
OTUB2 (OTUB2 (OTUB2A)): 0
BSA (BSA): 0
PCAF (PCAF): 0
NUDT7 (NUDT7): 0
viability at 48 h, 10 µM (in vitro [3]): 78.2%

CN(Cc1nc2ccccc2s1)C(=O)CCl [PCM-0102988]
viability at 48 h, 10 µM (in vitro [1]): 42.8%
viability at 48 h, 10 µM (in vitro [2]): 9.3%
OTUB2 (OTUB2 (OTUB2A)): 0
BSA (BSA): 0
PCAF (PCAF): 0
NUDT7 (NUDT7): 0.3
viability at 48 h, 10 µM (in vitro [3]): 2.9%

C=CC(=O)N1CCCC(c2nc3c(s2)CCCC3)C1 (stereo not drawn) [PCM-0103069]
viability at 48 h, 10 µM (in vitro [1]): 104%
viability at 48 h, 10 µM (in vitro [2]): 98.5%
OTUB2 (OTUB2 (OTUB2A)): 0
BSA (BSA): 0
PCAF (PCAF): 0
NUDT7 (NUDT7): 0
viability at 48 h, 10 µM (in vitro [3]): 79.4%

Cc1noc(C)c1CNC(=O)CCl [PCM-0102780]
viability at 48 h, 10 µM (in vitro [1]): 94.9%
viability at 48 h, 10 µM (in vitro [2]): 102%
OTUB2 (OTUB2 (OTUB2A)): 0
BSA (BSA): 0
PCAF (PCAF): 0
NUDT7 (NUDT7): 0.11
viability at 48 h, 10 µM (in vitro [3]): 101%

O=C(CCl)NNC(=O)c1cccc(Cl)c1 [PCM-0102470]
viability at 48 h, 10 µM (in vitro [1]): 81.3%
viability at 48 h, 10 µM (in vitro [2]): 84.7%
OTUB2 (OTUB2 (OTUB2A)): 0.38
BSA (BSA): 0
PCAF (PCAF): 0
NUDT7 (NUDT7): 0
viability at 48 h, 10 µM (in vitro [3]): 94.8%

O=C(CCl)Nc1ccc(Cl)c(Cl)c1 [PCM-0102112]
viability at 48 h, 10 µM (in vitro [1]): 26%
viability at 48 h, 10 µM (in vitro [2]): 2%
OTUB2 (OTUB2 (OTUB2A)): 0.3
BSA (BSA): 0
PCAF (PCAF): 0
NUDT7 (NUDT7): 0.18
viability at 48 h, 10 µM (in vitro [3]): 1.4%

C=CC(=O)NC1CCCN(c2cnn(C)c2)C1 (stereo not drawn) [PCM-0102480]
viability at 48 h, 10 µM (in vitro [1]): 96.4%
viability at 48 h, 10 µM (in vitro [2]): 99.5%
OTUB2 (OTUB2 (OTUB2A)): 0
BSA (BSA): 0
PCAF (PCAF): 0
NUDT7 (NUDT7): 0
viability at 48 h, 10 µM (in vitro [3]): 91.8%

CC(C)(C)c1ccc(NC(=O)CCl)cc1 [PCM-0102622]
viability at 48 h, 10 µM (in vitro [1]): 38.7%
viability at 48 h, 10 µM (in vitro [2]): 12.6%
OTUB2 (OTUB2 (OTUB2A)): 0.32
BSA (BSA): 0
PCAF (PCAF): 0
NUDT7 (NUDT7): 0
viability at 48 h, 10 µM (in vitro [3]): 10.3%

C=CC(=O)N1CCCN(C(=O)Oc2ccccc2)CC1 [PCM-0102451]
viability at 48 h, 10 µM (in vitro [1]): 105%
viability at 48 h, 10 µM (in vitro [2]): 96.2%
OTUB2 (OTUB2 (OTUB2A)): 0
BSA (BSA): 0
PCAF (PCAF): 0
NUDT7 (NUDT7): 0
viability at 48 h, 10 µM (in vitro [3]): 93.9%

CC1CCC(N(C)C(=O)CCl)CC1 (stereo not drawn) [PCM-0103019]
viability at 48 h, 10 µM (in vitro [1]): 40.7%
viability at 48 h, 10 µM (in vitro [2]): 39.2%
OTUB2 (OTUB2 (OTUB2A)): 0
BSA (BSA): 0
PCAF (PCAF): 0
NUDT7 (NUDT7): 0
viability at 48 h, 10 µM (in vitro [3]): 39.9%

O=C(CCl)N1CCN(c2ncc(Cl)cc2Cl)CC1 [PCM-0103022]
viability at 48 h, 10 µM (in vitro [1]): 36.4%
viability at 48 h, 10 µM (in vitro [2]): 3.6%
OTUB2 (OTUB2 (OTUB2A)): 0
BSA (BSA): 0
PCAF (PCAF): 0
NUDT7 (NUDT7): 0.22
viability at 48 h, 10 µM (in vitro [3]): 13.4%

O=C(CCl)N1CCN(S(=O)(=O)c2ccc3c(c2)CCC3)CC1 [PCM-0102193]
viability at 48 h, 10 µM (in vitro [1]): 20.9%
viability at 48 h, 10 µM (in vitro [2]): 2.7%
OTUB2 (OTUB2 (OTUB2A)): 0
BSA (BSA): 0
PCAF (PCAF): 0
NUDT7 (NUDT7): 0
viability at 48 h, 10 µM (in vitro [3]): 2.8%

C=CC(=O)N1C(C)CNCC1C.O=C(O)C(F)(F)F (stereo not drawn) [PCM-0102447]
viability at 48 h, 10 µM (in vitro [1]): 109%
viability at 48 h, 10 µM (in vitro [2]): 104%
OTUB2 (OTUB2 (OTUB2A)): 0
BSA (BSA): 0
PCAF (PCAF): 0
NUDT7 (NUDT7): 0
viability at 48 h, 10 µM (in vitro [3]): 105%

C=CC(=O)N1Cc2ccccc2CC1c1nnc(CC)o1 (stereo not drawn) [PCM-0103005]
viability at 48 h, 10 µM (in vitro [1]): 79.4%
viability at 48 h, 10 µM (in vitro [2]): 96.8%
OTUB2 (OTUB2 (OTUB2A)): 0
BSA (BSA): 0
PCAF (PCAF): 0
NUDT7 (NUDT7): 0
viability at 48 h, 10 µM (in vitro [3]): 93.2%

O=C(CCl)NCC1CCS(=O)(=O)C1 (stereo not drawn) [PCM-0102896]
viability at 48 h, 10 µM (in vitro [1]): 92.3%
viability at 48 h, 10 µM (in vitro [2]): 102%
OTUB2 (OTUB2 (OTUB2A)): 0.23
BSA (BSA): 0
PCAF (PCAF): 0
NUDT7 (NUDT7): 0
viability at 48 h, 10 µM (in vitro [3]): 117%
